Entries after “also recorded” stand apart in the source; their conditions may differ.
Columns and labels:
B cells = assay: Western Blot of apoptotic markers PARP-1 and caspase-9; assay type: cell-based
Procedure: Cell death mediated by C-1523 is p53-dependent. It was hypothesized that AID-dependent cytotoxicity induced by C-1523 would be associated with p53-mediated apoptosis. To test the importance of p53, a central regulator of cellular responses to DNA damage, viability was measured in mouse primary B-cells from Trp53+/+ versus Trp53−/− mice following exposure to C-1523. […] Caspase 3 activation, a marker of apoptotic cell death, was measured in C-1523 treated B-cells. B-cells were stained with an antibody that recognizes cleaved, activated caspase-3 (AC3) and the number of AC3-positive cells was measured via immunofluorescence microscopy. Following 10 Gy of ionizing irradiation Trp53+/+(WT), but not Trp53−/− cultures show a >30-fold increase in the percentage of AC3+ cells, confirming Trp53 dependent apoptosis in these cells after DNA damage. […] In order to more completely rule out apoptosis as the mode of cell death following C-1523 treatment in B cells, the expression of other common markers of apoptotic induction was examined via Western Blot.

[1] = system: primary, activated WT versus AID−/− cells; assay: RNASeq and Ingenuity Pathways Analysis; assay type: cell-based, mouse; conditions: 100 nM, 60 hours after activation
Procedure: FIG. 17A depicts a schematic for the fold-change (FC) analysis performed on RNASeq data from the indicated treatment groups. RNA was prepared from cells 60 hours after activation (αCD40 and IL-4) and treatment with DMSO or 100 nM C-1523. Pathway analysis was performed by Ingenuity Pathway Analysis (IPA). FIGS. 17B-17D depict the top 10 pathways for the Unique to FC1 (FIG. 17B) and FC2 (FIG. 17C) analysis and all pathways for the FC1>FC2 (DOWN) and F2>FC1 (UP) analysis (FIG. 17D). Within each bar (in white), is the ratio of genes from that pathway implicated by IPA. The dashed line indicates the 0.05 significance threshold for significant (bars crossing it) vs non-significant pathways. The mechanism of cell death is non-apoptotic and is via mitotic catastrophe.
C-1523 induces non-apoptotic cell death via non-apoptotic mitotic catastrophe. The surprising lack of apoptotic cell death induced by C-1523 prompted us to evaluate gene expression signatures to identify other potential cell death pathways. […]
RNASeq Analysis. […] The filtered and trimmed reads were then aligned to mm10 using tophat (v2.0.7). The aligned bam file was then passed through Cufflinks (v2.0.2) and reads per gene are counted using htseq-count. edgeR. […]

[2] = system: AID-expressing mouse B-lymphocytes
[3] = system: primary splenic B-cells from WT (AID-expressing) mice; assay: Expansion and viability of activated primary splenic B-cells
HEK293T cells = assay: Sister chromatid exchange assay; assay type: cell-based, human; conditions: 100 nM, relative to DMSO vehicle
From the text: C-1523 inhibits Sister Chromatid Exchange. […] To directly measure the effect of C-1523 on RAD51-mediated homologous recombination, we measured sister chromatid exchange and HR repair of an endonuclease generated DSB. Sister chromatid exchange (SCE) is a RAD51-mediated homologous recombination event between replicated sister chromatids in replicative or post-replicative cells, and reflects repair of replication-associated DNA damage. SCE can be measured following differential chromatid labeling by BrdU incorporation (Latt and Schreck, 1980). SCE is known to occur at a high rate in HEK293T cells, with approximately 0.25 spontaneously occurring exchange events per chromosome (FIGS. 14A, 14C) (Londono-Vallejo et al., 2004).
Propidium Iodide and flow cytometry.

RAD51 = RAD51 (Mus musculus, UniProt Q08297); assay: RAD51 nucleocytoplasmic distribution by cell fractionation and Western blotting; assay type: cell-based; set-up: quantitation of RAD51 expression in nuclear and cytoplasmic fractions as determined by Western Blot; endogenous in cells
Sequence of RAD51 (Q08297 whole entry): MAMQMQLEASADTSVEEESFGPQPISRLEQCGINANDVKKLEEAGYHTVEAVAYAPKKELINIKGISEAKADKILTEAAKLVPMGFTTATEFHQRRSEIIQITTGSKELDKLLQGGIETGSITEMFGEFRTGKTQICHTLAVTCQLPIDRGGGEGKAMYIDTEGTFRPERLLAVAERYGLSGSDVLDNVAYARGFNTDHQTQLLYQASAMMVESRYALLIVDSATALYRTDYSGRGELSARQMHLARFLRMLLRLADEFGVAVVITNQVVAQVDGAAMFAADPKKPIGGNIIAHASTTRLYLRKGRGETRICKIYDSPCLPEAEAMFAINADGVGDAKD
Procedure: It was next tested whether C-1523 would affect RAD51 localization or DNA damage-induced focus formation. Primary mouse B-cells were treated with 100 nM C-1523 (or vehicle control) and given either 0 or 2.5Gy ionizing irradiation. Following recovery in cell culture, cells were fixed and stained for immunofluorescence imaging to measure subcellular localization of RAD51. […] To confirm the effect of C-1523 on RAD51 subcellular localization, nucleocytoplasmic distribution was independently measured following C-1523 treatment by cell fractionation and Western blotting (FIG. 13D; Supplemental FIG. 2). […] This effect on subcellular localization was specific to RAD51, as localization of NF-kB, which undergoes nuclear translocation and homing to genomic target sites after cell stimulation, was unaffected by C-1523 exposure (FIGS. 13E-13F).

mES cells = assay: DR-GFP reporter assay (HR repair of endonuclease generated DSB); assay type: cell-based, mouse; conditions: 100 nM, compared to DMSO

CC(=O)Nc1ccc(/C=C/c2ccc(NC(=S)NC(C)C)cc2S(=O)(=O)O)c(S(=O)(=O)O)c1 [C-1523, (E)-5-acetamido-2-(4-(3-isopropylthioureido)-2-sulfonatostyryl)benzenesulfonate]
cleavage of PARP-1 or caspase-9 (B cells; 2 days following activation): no cleavage of PARP-1 or caspase-9 was observed | cleaved PARP-1 and caspase-9 (B cells; 3 days): not due to C-1523 treatment specifically | most significantly altered pathways (IPA) [1]: did not identify any previously annotated cell death pathways | concentration eliciting AID-specific cytotoxicity [2]: 100 nM | rank among DIDS analogs tested [2]: most potent DIDS analog tested | AID+:AID− activity score: effect in AID+ cells versus corresponding AID- cells ([2]; 10 μM): roughly 6 fold | effectiveness relative to DIDS ([2]; Example 3 summary): 1000 times | potency relative to DIDS ([2]; dose response data): at least 1500 times | dependence of induced cell death [3]: both AID and Trp53 dependent | shape of dose response ([3]; 1 to 1000 nM): biphasic response | B-cell viability ([3]; 50, 100, 150, 200, or 250 nM, 3 days, Trypan blue): dose-dependent reduction in B-cell viability; also recorded: dose dependent reduction in B-cell viability | cellular expansion ([3]; 50-250 nM, four days, αCD40+IL-4 activation): selectively suppressed cellular expansion | PI+ cells (cell death) ([3]; day 4, flow cytometry): significant increase in PI+ cells | median number of SCE events per chromosome (HEK293T cells): significantly reduced | fraction of RAD51 localized to the nucleus, following irradiation (RAD51): small, but measurable reduction | reduction of percentage of GFP-positive cells (mES cells): about 40%

From patent US10927075B2, “Compositions and methods relating to the treatment of cancer, autoimmune disease, and neurodegenerative disease” (THE JACKSON LABORATORY, priority 2014, dated 2021)
